IC50 data for 12 compounds are collected here from patent publication US8519188B2, “Compounds which can be used for the treatment of cancers” (Marc-Henry Pitty, priority 2008, dated 2013).

In assay [1] the test system is MCF-7 breast cancer cell line. The assay is described as follows: Cell proliferation (CellTiter 96 AQueous MTS/PMS), MCF-7. Type of assay: cell-based. As to conditions: Homo sapiens, MCF7; MCF-7; 72 hours of incubation; concentration that induces the death of 50% of the cells; read-out: CI50 for various cell lines (nM) MCF-7. How it is done: (§1) The effects of the compounds of the invention on the proliferation of cancer cells were studied on various human cancer cell lines of various tissue origins (MCF-7: breast cancer, MCF-7/adr adriamycin-resistant breast cancer, ARH-77: myeloma, ARH-77/Dox: doxorubicin (other name for adriamycin)-resistant myeloma, HL-60: acute promyelocytic leukaemia, HL-60/R10: doxorubicin-resistant acute promyelocytic leukaemia). The cancer cells used for this study were incubated at 37° C. in the presence of one of the compounds of the invention added to the culture medium at various concentrations.
(§2) The cancer cell lines originate from the ATCC (American Type Culture Collection) in the case of MCF-7, ARH-77 and HL-60, from Pharmacell (Paris, France) for HL-60/R10, from Oncodesign (Dijon, France) for ARH-77/Dox and from the Pitié Salpetrière Hospital for MCF-7/adr. They were cultivated in a RPMI 1640 medium containing 2 mM L-glutamine and supplemented with 10% foetal calf serum. All the cell lines were maintained in culture at 37° C. in a moist atmosphere containing 5% CO2. Cell proliferation was evaluated using the “CellTiter 96® AQueous” reagent (Promega, Wis., USA) while adhering to the manufacturer's instructions. The cells were seeded in 96-well culture plates in a proportion of from 5,000 to 10,000 cells per well in 200 μl of culture medium. After 24 hours of preincubation at 37° C., the compounds of the invention dissolved in dimethyl sulphoxide (DMSO) were added individually to each of the wells in a proportion of 2 μl per well. After 72 hours of incubation at 37° C. in a moist atmosphere containing 5% CO2, 40 μL of a MTS/PMS ([3-(4,5-dimethylthiazol-2-yl)-5-(3-carboxymethoxyphenyl)-2-(4-sulphophenyl)-2H-tetrazolium phenazine methosulphate) solution were added to each well.

Assay [2] deals with MCF-7/adr adriamycin-resistant breast cancer cell line. The assay is described as follows: Cell proliferation (CellTiter 96 AQueous MTS/PMS), MCF-7/adr. Type of assay: cell-based. As to conditions: Homo sapiens, NCI/ADR-RES; MCF-7/adr; 72 hours of incubation; concentration that induces the death of 50% of the cells; read-out: CI50 for various cell lines (nM) MCF-7/adr. On the procedure:
as §1, §2

SMILES strings stand for the structures.

For `C#CC(=O)N(c1cccc(-c2ccccc2)c1)C(C(=O)NC1CCCCC1)c1cccs1` (stereo not drawn) [Compound 58, Propynoic acid biphenyl-3-yl-(cyclohexylcarbamoylthiophen-2-yl-methyl)amide], the IC50 in assay [1] is 580 nM; in assay [2], 2.4 nM.
On to `C#CC(=O)N(c1ccccc1C)C(C(=O)NC1CCCCC1)c1cccs1` (stereo not drawn) [Compound 60, Propynoic Acid (cyclohexylcarbamoylthiophen-2-yl-methyl)-o-tolylamide], for which the IC50 is 357 nM in assay [1] and 3.5 nM in assay [2].
On the same counts, the results for `C#CC(=O)N(c1cccc(C(F)(F)F)c1)C(C(=O)NC1CCCCC1)c1ccc2c(c1)OCO2` (stereo not drawn) [Compound 63, Propynoic Acid (benzo[1,3]dioxol-5-yl-cyclohexylcarbamoylmethyl)-(3-trifluoromethylphenyl)amide] are 401 nM and 2 nM.
For the compound `C#CC(=O)N(c1cccc(C(F)(F)F)c1)C(C(=O)NC1CCCCC1)c1ccccc1F` (stereo not drawn) [Compound 72, Propynoic Acid [cyclo hexylcarbamoyl-(2-fluorophenyl)methyl]-(3-trifluoromethylphenyl)amide], the values for the IC50 in assay [1] and in assay [2] were 619 nM and 3 nM, respectively.
For `C#CC(=O)N(c1cccc(C(F)(F)F)c1)C(C(=O)NC1CCCCC1)c1ccc(F)cc1` (stereo not drawn) [Compound 74, Propynoic Acid [cyclohexylcarbamoyl-(4-fluorophenyl)methyl]-(3-trifluoromethylphenyl)amide], the figures for the IC50 in assay [1] and in assay [2] were 506 nM and 2.9 nM, respectively.
As for `C#CC(=O)N(c1cccc(C(F)(F)F)c1)C(C(=O)NC1CCCCC1)c1ccc(C#N)cc1` (stereo not drawn) [Compound 81, Propynoic Acid [(4-cyanophenyl)cyclohexylcarbamoylmethyl]-(3-trifluoromethylphenyl)amide], the IC50 in assay [1] is 269 nM; in assay [2], 1.6 nM.
Consider `C#CC(=O)N(c1cccc(C(F)(F)F)c1)C(C(=O)NC1CCCCC1)c1cccc2c1OCO2` (stereo not drawn) [Compound 84, Propynoic Acid (benzo[1,3]dioxol-4-yl-cyclohexylcarbamoylmethyl)-(3-trifluoromethyl-phenyl)amide], for which the IC50 in assay [1] amounted to 250 nM; in assay [2], 1.6 nM.
In the case of `C#CC(=O)N(c1cccc(C(F)(F)F)c1)C(C(=O)NC1CCCCC1)c1ccccc1[N+](=O)[O-]` (stereo not drawn) [Compound 85, Propynoic Acid [cyclohexylcarbamoyl-(2-nitrophenyl)methyl]-(3-trifluoromethylphenyl)amide], the IC50 was 177 nM in assay [1] and 1.6 nM in assay [2].
On the same counts, the results for `C#CC(=O)N(c1cccc(C(F)(F)F)c1)C(C(=O)NC1CCCCC1)c1ccc(Cl)cc1Cl` (stereo not drawn) [Compound 86, Propynoic Acid [cyclohexylcarbamoyl-(2,4-dichlorophenyl)methyl]-(3-trifluoromethylphenyl)amide] are 216 nM and 0.8 nM.
For `C#CC(=O)N(c1cccc(C(F)(F)F)c1)C(C(=O)NC1CCCCC1)c1ccc(SC)cc1` (stereo not drawn) [Compound 88, Propynoic Acid [cyclohexylcarbamoyl-(4-methylsulphanylphenyl)methyl]-(3-trifluoromethylphenyl)amide], the IC50 in assay [1] worked out at 334 nM; in assay [2], 1.4 nM.
`C#CC(=O)N(c1cccc(C(F)(F)F)c1)C(C(=O)NC1CCCCC1)c1ccc(C(C)C)cc1` (stereo not drawn) [Compound 89, Propynoic Acid [cyclo hexylcarbamoyl-(4-isopropylphenyl)methyl]-(3-trifluoromethylphenyl)amide]: the figures for the IC50 in assay [1] and in assay [2] were 825 nM and 2.2 nM, respectively.
As to `C#CC(=O)N(c1cccc(C(F)(F)F)c1)C(C(=O)NC1CCCCC1)c1cccc(Oc2ccccc2)c1` (stereo not drawn) [Compound 90, Propynoic Acid [cyclohexylcarbamoyl-(3-phenoxyphenyl)methyl]-(3-trifluoromethylphenyl)amide], the IC50 in assay [1] worked out at 820 nM; in assay [2] it was 2.2 nM.
